These results are taken from ChEMBL document CHEMBL1129455, “Chemistry of the pyrrolo[1,2-alpha]benzimidazole antitumor agents: influence of the 7-substituent on the ability to alkylate DNA and inhibit topoisomerase II” (1996).

Broadly, the LC50 is the concentration lethal to half of the exposed cells or organisms. Higher therefore signals lower toxicity. The term GI50 denotes the concentration that inhibits growth by half. A low value points to greater sensitivity of the cells. As usually defined, the TGI is the concentration at which net growth stops.

Type in all cases: functional
Assay [1] relates to Cancer cell lines. Kind of assay: The concentration to cause 50% cancer cell lethality and the value is the mean value which was obtained from 60 cancer cell line assay.
Assay [2] has as its system Cancer cell lines. Kind of assay: concentration to inhibit 50%cancer cell growth and the value is the mean value which was obtained from 60 cancer cell line assay.
Assay [3] has as its system Cancer cell lines. Kind of assay: concentration to inhibit 100%cancer cell growth and the value is the mean value which was obtained from 60 cancer cell line assay. To be noted: read-out: Log TGI (converted).

Where only a bound is given, the exact number is not on record here.

In turn, `O=C1C=C(N2CC2)C(=O)c2c1nc1n2CCC1` gave an LC50 in the assay with Cancer cell lines [1] of over 100000 nM. The same compound had a GI50 in the assay on Cancer cell lines [2] of over 100000 nM. Also, the total growth inhibition concentration (TGI) with Cancer cell lines [3] is over 100000 nM.
With `O=C1C(N2CC2)=CC(=O)c2c1nc1n2CCC1`, the LC50 in the assay with Cancer cell lines [1] is 5500 nM. Moreover, the GI50 in the assay with Cancer cell lines [2] was 363 nM. In the assay with Cancer cell lines [3], the total growth inhibition concentration (TGI) was 1350 nM.
In the assay with Cancer cell lines [1], `CC(=O)OC1CCn2c1nc1c2C(=O)C=C(N2CC2)C1=O` (configuration not stated) gave an LC50 of 5250 nM. The same compound had a GI50 with Cancer cell lines [2] of 269 nM. Also, the total growth inhibition concentration (TGI) in the assay with Cancer cell lines [3] is 1070 nM.
In the assay on Cancer cell lines [1], `COC1=C(N2CC2)C(=O)c2nc3n(c2C1=O)CCC3` showed a median lethal concentration (LC50) of 13500 nM. The GI50 in the assay with Cancer cell lines [2] was 708 nM. In the assay with Cancer cell lines [3], the concentration for total growth inhibition (TGI) was 2510 nM.
For `COC1=C(NC(C)=O)C(=O)c2nc3n(c2C1=O)CCC3OC(C)=O` (configuration not stated) the same measures were 74100 nM, 18600 nM and 38900 nM.
In turn, `CC(=O)NC1=C(C)C(=O)c2c(nc3n2CCC3)C1=O` showed a median lethal concentration (LC50) in the assay with Cancer cell lines [1] of 10700 nM. Besides, in the assay on Cancer cell lines [2], the 50% growth inhibitory concentration (GI50) was 1450 nM. In addition, the TGI in the assay with Cancer cell lines [3] is 3720 nM.
For the compound `CC1=C(N2CC2)C(=O)c2nc3n(c2C1=O)CCC3`, the LC50 with Cancer cell lines [1] is 2040 nM. In the assay with Cancer cell lines [2], growth was halved (GI50) at 18.2 nM. Also, the total growth inhibition concentration (TGI) in the assay on Cancer cell lines [3] is 105 nM.
For `CC(=O)NC1=C(C)C(=O)c2c(nc3n2CCC3OC(C)=O)C1=O` (configuration not stated) the same measures were 18600 nM, 1580 nM and 4790 nM.
As for `CC(=O)OC1CCn2c1nc1c2C(=O)C(C)=C(N2CC2)C1=O` (configuration not stated), in the assay with Cancer cell lines [1], the median lethal concentration (LC50) was 245 nM. In the assay on Cancer cell lines [2], this compound had a GI50 of 12 nM. In the assay on Cancer cell lines [3], the total growth inhibition concentration (TGI) was 31.6 nM.
